This is an account of results in publication PMC7590512, “Lysosomal cathepsin creates chimeric epitopes for diabetogenic CD4 T cells via transpeptidation” (The Journal of Experimental Medicine, 2020).

Assay [1] relates to BDC-10.1 T cell. To be noted: for stimulation of BDC-10.1 (IL-2): M12.C3.g7 APCs, peptides at the concentrations used in the digests, average of three experiments. The text has this: (§1) For APCs, we used the IA^g7-expressing M12.C3 B cell lymphoma (M12.C3.g7; [Carrasco-Marin et al., 1996]). Four T cell hybridomas were used in various stimulation assays. BDC-2.5 and BDC-10.1 were provided by Dr. Kathryn Haskins (University of Colorado Medical School, Aurora, CO). G7W120 was produced in this laboratory ([Jin et al., 2015]). The insulin B:9-23 reactive AS91 T cell hybridoma ([Levisetti et al., 2007]) was provided by Dr. Emil Unanue (Washington University, St. Louis, MO). T cell hybridomas (10^5 cells) were mixed with either 10^5 paraformaldehyde-fixed APCs or 10^5 unfixed APCs and cultured overnight with various concentrations of synthetic peptide or volumes of a pH-adjusted cathepsin digestion mixture in a final volume of 250 µl. Secreted IL-2 was assayed with a functional assay where the growth and survival of an HT-2 IL-2–dependent cell line was quantified using the dye MTT ([White et al., 2000]) and reported as units per milliliter based on comparison to an IL-2 standard.

Assay [2] concerns Cat-L. To be noted: estimated by comparison with control peptide LQTLALWSRMDQL; C-peptide plus WE14 with Cat-L.
Excerpt: as §1

In assay [3] the test system is livCat-L and recCat-L. To be noted: MS/MS.
In assay [4] the test system is BDC-2.5, BDC-10.1, and G7W-120 T cells.
Assay [5] has as its system ChgA-specific T cells. To be noted: words; ref Stadinski et al., 2010a; cited from earlier work.
In assay [6] the test system is Cat-L.

For C-peptide, the “stimulation of BDC-10.1 (IL-2)” value in assay [1] is “neither C-peptide nor WE14 alone had any activity”. In addition, in assay [2], the “C-peptide converted to a stimulatory peptide” value is 2.5–5%. For the same substance, the “cleavage of mouse C-peptide” value in assay [3] was “The cleavage after TLAL was found in both digests”.
Take WSRMDQLAKELTAE [WE14]: the “stimulation of BDC-10.1 (IL-2)” value in assay [1] is “neither C-peptide nor WE14 alone had any activity”. Besides, the “stimulation of three T cells (IL-2)” value in assay [4] is “inactive at the concentrations tested here”. In addition, the “agonism for BDC-2.5 and other ChgA-specific T cells” value in assay [5] was “weak agonist”.
As for LQTLALWSRMDQL, the “stimulation of BDC-10.1 (IL-2)” value in assay [1] was “highly stimulatory”.
On to RKLLW-NH2, for which the “inhibition of BDC-10.1 response to 0.17 µM LQTLALWSRMDQL by carried-over inhibitor” value in assay [1] (control for nonspecific inhibition of the stimulation assay) is “not inhibitory”. In addition, in assay [6] (increasing inhibitor concentrations (44-350 µM)), the “inhibition of generation of the active peptide, words” value is “inhibited by RKLLW-NH2 in a dose-dependent manner”. Also, in assay [6] (inhibitor at same concentration as C-peptide substrate, livCat-L or recCat-L, preincubated 30 min on ice), the “inhibition of generation of the active peptide by Cat-L” value is given as approximately 50%.
